In patent US12492173B2, “Herbicidal substituted N-tetrazolyl aryl carboxamides” (Bayer Aktiengesellschaft, priority 2019, dated 2025):

Key:
Format in all cases: in vivo
Stellaria media [1] = assay: Pre-emergence herbicidal action, STEME; design: key to Herbicidal action against STEME: % activity: 100 = plants have died, 0 = like control plants; details: comparative experiment, 80 g of a.i./ha
How it was run: (§1)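 Application took place on the soil surface immediately after sowing into sandy loam, using aqueous WP or EC preparations with 0.2% wetting agent. Visual percent scoring followed 3 weeks later, untreated pots serving as reference.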

Abutilon theophrasti [2] = assay: Post-emergence herbicidal action, ABUTH; design: key: % herbicidal action vs untreated; 100 = plants died, 0 = like control; details: comparative experiment, post-emergence, 20 g of a.i./ha
How it was run: (§2)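 Percent herbicidal effect was judged by eye against untreated controls around 3 weeks after foliar treatment, where 100% meant dead plants. Spraying took place at the one-leaf stage using wettable powder or emulsion concentrate diluted in water (600 to 800 l/ha) with added wetting agent at 0.2%.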

Setaria viridis [3] = assay: Post-emergence herbicidal action, SETVI; design: key: % herbicidal action vs untreated; 100 = plants died, 0 = like control; details: comparative experiment, post-emergence, 20 g of a.i./ha
How it was run: as §2

Echinochloa crus-galli [4] = assay: Pre-emergence herbicidal action, ECHCG; details: Echinochloa crus-galli, 504 h, comparative experiment, 80 g of a.i./ha, read-out: Herbicidal action against ECHCG
How it was run: as §1

Setaria viridis [5] = assay: Pre-emergence herbicidal action, SETVI; design: key to Herbicidal action against SETVI: % activity: 100 = plants have died, 0 = like control plants; details: comparative experiment
How it was run: as §1

Cyperus esculentus = assay: Pre-emergence herbicidal action, CYPES; design: key: % activity: 100 = plants have died, 0 = like control plants; details: comparative experiment
Text: (§3) 1. Pre-Emergence Herbicidal Action Against Harmful Plants Seeds of monocotyledonous and dicotyledonous weed plants and crop plants are laid out in sandy loam soil in wood-fiber pots and covered with soil. The compounds of the invention, formulated in the form of wettable powders (WP) or as emulsion concentrates (EC), are then applied to the surface of the covering soil in the form of an aqueous suspension or emulsion at a water application rate equating to 600 to 800 l/ha, with addition of 0.2% wetting agent. After the treatment, the pots are placed in a greenhouse and kept under good growth conditions for the trial plants. The damage to the test plants is scored visually after a test period of 3 weeks by comparison with untreated controls (herbicidal activity in percent (%): 100% activity=the plants have died, 0% activity=like control plants). […] The tables below illustrate, in an exemplary manner, the […] herbicidal action of the compounds according to the invention, the herbicidal activity being stated in percent. [table] In the experiments that follow, herbicidal action of numerous inventive compounds and the known compounds that are structurally closest from D1 (WO 2012/028579 A1) and D2 (WO 2018/202535 A1) were compared under the above-specified conditions by the pre-emergence and post-emergence method. The example numbers given in the tables relate to the compounds disclosed in the respective documents. In addition to the compounds disclosed in D1 and D2, the following compounds V-1 to V-14 that are encompassed by D1 or D2 but are not compounds specified therein were used in the comparative experiments: • V-1: 2-(methylsulfanyl)-3-(methylsulfinyl)-N-(1-methyl-1H-tetrazol-5-yl)-4-(trifluoromethyl)benzamide • V-2: 2-(methylsulfanyl)-3-(methylsulfonyl)-N-(1-methyl-1H-tetrazol-5-yl)-4-(trifluoromethyl)benzamide • V-3: 2,3-bis(ethylsulfanyl)-N-(1-methyl-1H-tetrazol-5-yl)-4-(trifluoromethyl)benzamide • V-4: 2-chloro-3-(ethylsulfanyl)-N-(1-methyl-1H-tetrazol-5-yl)-4-(trifluoromethyl)benzamide • V-5: 2-chloro-4-iodo-3-(methylsulfanyl)-N-(1-methyl-1H-tetrazol-5-yl)benzamide • V-6: 2-chloro-4-iodo-3-(methylsulfinyl)-N-(1-methyl-1H-tetrazol-5-yl)benzamide • V-7: 2-chloro-4-iodo-3-(methylsulfonyl)-N-(1-methyl-1H-tetrazol-5-yl)benzamide • V-8: 2-bromo-3-(methylsulfanyl)-N-(1-methyl-1H-tetrazol-5-yl)-4-(trifluoromethyl)benzamide • V-9: 2-bromo-3-(methylsulfinyl)-N-(1-methyl-1H-tetrazol-5-yl)-4-(trifluoromethyl)benzamide • V-10: 2-bromo-3-(methylsulfonyl)-N-(1-methyl-1H-tetrazol-5-yl)-4-(trifluoromethyl)benzamide • V-11: 2-bromo-3-(ethylsulfanyl)-N-(1-methyl-1H-tetrazol-5-yl)-4-(trifluoromethyl)benzamide • V-12: 2-bromo-3-(ethylsulfinyl)-N-(1-methyl-1H-tetrazol-5-yl)-4-(trifluoromethyl)benzamide • V-13: 2-bromo-3-(ethylsulfonyl)-N-(1-methyl-1-1H-tetrazol-5-yl)-4-(trifluoromethyl)benzamide • V-14: 2-cyclopropyl-3-(ethylsulfanyl)-N-(1-methyl-1H-tetrazol-5-yl)-4-(trifluoromethyl)benzamide Herbicidal Pre-Emergence Action: […]

Abutilon theophrasti [6] = assay: Pre-emergence herbicidal action, ABUTH; design: key to Herbicidal action against ABUTH: % activity: 100 = plants have died, 0 = like control plants; details: comparative experiment
How it was run: as §1

Viola tricolor [7] = assay: Pre-emergence herbicidal action, VIOTR; design: key to Herbicidal action against VIOTR: % activity: 100 = plants have died, 0 = like control plants; details: comparative experiment, 80 g of a.i./ha
How it was run: as §1

Matricaria inodora [8] = assay: Post-emergence herbicidal action, MATIN; design: key: % herbicidal action vs untreated; 100 = plants died, 0 = like control; details: comparative experiment, post-emergence
How it was run: as §2

Echinochloa crus-galli [9] = assay: Post-emergence herbicidal action, ECHCG; design: key: % herbicidal action vs untreated; 100 = plants died, 0 = like control; details: comparative experiment, post-emergence, 20 g of a.i./ha
How it was run: as §2

Viola tricolor [10] = assay: Post-emergence herbicidal action, VIOTR; design: key: % herbicidal action vs untreated; 100 = plants died, 0 = like control; details: comparative experiment, post-emergence, 20 g of a.i./ha
How it was run: as §2

Alopecurus myosuroides [11] = assay: Pre-emergence herbicidal action, ALOMY; design: key: % activity: 100 = plants have died, 0 = like control plants; details: comparative experiment
Text: as §3

Veronica persica [12] = assay: Post-emergence herbicidal action, VERPE; design: key: % herbicidal action vs untreated; 100 = plants died, 0 = like control; details: comparative experiment, post-emergence
How it was run: as §2

Amaranthus retroflexus = assay: Post-emergence herbicidal action, AMARE; design: key: % herbicidal action vs untreated; 100 = plants died, 0 = like control; details: comparative experiment, post-emergence, 20 g of a.i./ha
How it was run: as §2

Matricaria inodora [13] = assay: Pre-emergence herbicidal action, MATIN; design: key to Herbicidal action against MATIN: % activity: 100 = plants have died, 0 = like control plants; details: comparative experiment, 20 g of a.i./ha
How it was run: as §1

Lolium multiflorum = assay: Post-emergence herbicidal action, LOLMU; design: key: % herbicidal action: 100 = plants died, 0 = like control; details: comparative experiment, post-emergence, 5 g of a.i./ha
Procedure: [table] 2. Post-Emergence Herbicidal Action Against Harmful Plants Seeds of monocotyledonous and dicotyledonous weed and crop plants are laid out in sandy loam soil in wood-fiber pots, covered with soil and cultivated in a greenhouse under good growth conditions. 2 to 3 weeks after sowing, the test plants are treated at the one-leaf stage. The compounds of the invention, formulated in the form of wettable powders (WP) or as emulsion concentrates (EC), are then sprayed onto the green parts of the plants in the form of an aqueous suspension or emulsion at a water application rate equating to 600 to 800 l/ha, with addition of 0.2% wetting agent. After the test plants have been left to stand in the greenhouse under optimal growth conditions for about 3 weeks, the action of the preparations is assessed visually in comparison to untreated controls (herbicidal action in percent (%): 100% activity=the plants have died, 0% activity=like control plants). […] The tables below illustrate, in an exemplary manner, the post-emergence herbicidal action of the compounds according to the invention, the herbicidal activity being stated in percent. In the experiments that follow, herbicidal action of numerous inventive compounds and the known compounds that are structurally closest from D1 (WO 2012/028579 A1) and D2 (WO 2018/202535 A1) were compared under the above-specified conditions by the pre-emergence and post-emergence method. The example numbers given in the tables relate to the compounds disclosed in the respective documents. In addition to the compounds disclosed in D1 and D2, the following compounds V-1 to V-14 that are encompassed by D1 or D2 but are not compounds specified therein were used in the comparative experiments: • V-1: 2-(methylsulfanyl)-3-(methylsulfinyl)-N-(1-methyl-1H-tetrazol-5-yl)-4-(trifluoromethyl)benzamide • V-2: 2-(methylsulfanyl)-3-(methylsulfonyl)-N-(1-methyl-1H-tetrazol-5-yl)-4-(trifluoromethyl)benzamide • V-3: 2,3-bis(ethylsulfanyl)-N-(1-methyl-1H-tetrazol-5-yl)-4-(trifluoromethyl)benzamide • V-4: 2-chloro-3-(ethylsulfanyl)-N-(1-methyl-1H-tetrazol-5-yl)-4-(trifluoromethyl)benzamide • V-5: 2-chloro-4-iodo-3-(methylsulfanyl)-N-(1-methyl-1H-tetrazol-5-yl)benzamide • V-6: 2-chloro-4-iodo-3-(methylsulfinyl)-N-(1-methyl-1H-tetrazol-5-yl)benzamide • V-7: 2-chloro-4-iodo-3-(methylsulfonyl)-N-(1-methyl-1H-tetrazol-5-yl)benzamide • V-8: 2-bromo-3-(methylsulfanyl)-N-(1-methyl-1H-tetrazol-5-yl)-4-(trifluoromethyl)benzamide • V-9: 2-bromo-3-(methylsulfinyl)-N-(1-methyl-1H-tetrazol-5-yl)-4-(trifluoromethyl)benzamide • V-10: 2-bromo-3-(methylsulfonyl)-N-(1-methyl-1H-tetrazol-5-yl)-4-(trifluoromethyl)benzamide • V-11: 2-bromo-3-(ethylsulfanyl)-N-(1-methyl-1H-tetrazol-5-yl)-4-(trifluoromethyl)benzamide • V-12: 2-bromo-3-(ethylsulfinyl)-N-(1-methyl-1H-tetrazol-5-yl)-4-(trifluoromethyl)benzamide • V-13: 2-bromo-3-(ethylsulfonyl)-N-(1-methyl-1-1H-tetrazol-5-yl)-4-(trifluoromethyl)benzamide • V-14: 2-cyclopropyl-3-(ethylsulfanyl)-N-(1-methyl-1H-tetrazol-5-yl)-4-(trifluoromethyl)benzamide Herbicidal Pre-Emergence Action: […]

Stellaria media [14] = assay: Post-emergence herbicidal action, STEME; design: key: % herbicidal action vs untreated; 100 = plants died, 0 = like control; details: comparative experiment, post-emergence, 5 g of a.i./ha
How it was run: as §2

Veronica persica [15] = assay: Pre-emergence herbicidal action, VERPE; design: key to Herbicidal action against VERPE: % activity: 100 = plants have died, 0 = like control plants; details: comparative experiment, 20 g of a.i./ha
How it was run: as §1

Polygonum convolvulus = assay: Post-emergence herbicidal action, POLCO; details: comparative experiment, post-emergence, 5 g of a.i./ha
How it was run: as §2

Avena fatua = assay: Post-emergence herbicidal action, AVEFA; design: key: % herbicidal action vs untreated; 100 = plants died, 0 = like control; details: comparative experiment, post-emergence, 5 g of a.i./ha
How it was run: as §2

Alopecurus myosuroides [16] = assay: Post-emergence herbicidal action, ALOMY; design: key: % herbicidal action vs untreated; 100 = plants died, 0 = like control; details: comparative experiment, post-emergence, 5 g of a.i./ha
How it was run: as §2

## CC[S+]([O-])c1c(C(F)(F)F)ccc(C(=O)Nc2nnnn2C)c1Br (stereo not drawn) [Example V-12, 2-bromo-3-(ethylsulfinyl)-N-(1-methyl-1H-tetrazol-5-yl)-4-(trifluoromethyl)benzamide, reference compound]
Stellaria media [1]
  Herbicidal action against STEME: 0
Abutilon theophrasti [2]
  Herbicidal action against ABUTH: 0
Setaria viridis [3]
  Herbicidal action against SETVI: 20
Echinochloa crus-galli [4]
  pest or weed control at 80 g/ha: 0%
Setaria viridis [5]; 80 g of a.i./ha
  Herbicidal action against SETVI: 0
Cyperus esculentus; 80 g of a.i./ha
  Herbicidal action against CYPES: 0
Abutilon theophrasti [6]; 80 g of a.i./ha
  Herbicidal action against ABUTH: 0
Viola tricolor [7]
  Herbicidal action against VIOTR: 0
Matricaria inodora [8]; 20 g of a.i./ha
  Herbicidal action against MATIN: 0
Echinochloa crus-galli [9]
  Herbicidal action against ECHCG: 0
Viola tricolor [10]
  Herbicidal action against VIOTR: 0
Alopecurus myosuroides [11]; 80 g of a.i./ha
  Herbicidal action against ALOMY: 0
Veronica persica [12]; 20 g of a.i./ha
  Herbicidal action against VERPE: 0
Amaranthus retroflexus
  Herbicidal action against AMARE: 10

## CCSc1c(C(F)(F)F)ccc(C(=O)Nc2nnnn2C)c1Cl [Example V-4, 2-chloro-3-(ethylsulfanyl)-N-(1-methyl-1H-tetrazol-5-yl)-4-(trifluoromethyl)benzamide, reference compound]
Matricaria inodora [13]
  Herbicidal action against MATIN: 50
Lolium multiflorum
  Herbicidal action against LOLMU: 10
Stellaria media [14]
  Herbicidal action against STEME: 60
Veronica persica [15]
  Herbicidal action against VERPE: 80
Polygonum convolvulus
  Herbicidal action against POLCO: 30
Setaria viridis [5]; 20 g of a.i./ha
  Herbicidal action against SETVI: 60
Cyperus esculentus; 20 g of a.i./ha
  Herbicidal action against CYPES: 0
Abutilon theophrasti [6]; 20 g of a.i./ha
  Herbicidal action against ABUTH: 0
Matricaria inodora [8]; 5 g of a.i./ha
  Herbicidal action against MATIN: 60
Alopecurus myosuroides [11]; 20 g of a.i./ha
  Herbicidal action against ALOMY: 40
Avena fatua
  Herbicidal action against AVEFA: 30
Veronica persica [12]; 5 g of a.i./ha
  Herbicidal action against VERPE: 80
Alopecurus myosuroides [16]
  Herbicidal action against ALOMY: 40
